{"source": "patent US8470889B2", "about": "(TRT Pharma Inc., priority 2008, dated 2013)", "key": {"[1]": {"biological_target": "T1, wild-type human AR (Homo sapiens, UniProt P10275)", "T1 construct": "utilizing plasmid expressing a full length of AR; expressed in transfected cells; host or cells: PC-3 cells, plasmid pCMV-AR-wt", "T1 sequence (P10275 1-920)": "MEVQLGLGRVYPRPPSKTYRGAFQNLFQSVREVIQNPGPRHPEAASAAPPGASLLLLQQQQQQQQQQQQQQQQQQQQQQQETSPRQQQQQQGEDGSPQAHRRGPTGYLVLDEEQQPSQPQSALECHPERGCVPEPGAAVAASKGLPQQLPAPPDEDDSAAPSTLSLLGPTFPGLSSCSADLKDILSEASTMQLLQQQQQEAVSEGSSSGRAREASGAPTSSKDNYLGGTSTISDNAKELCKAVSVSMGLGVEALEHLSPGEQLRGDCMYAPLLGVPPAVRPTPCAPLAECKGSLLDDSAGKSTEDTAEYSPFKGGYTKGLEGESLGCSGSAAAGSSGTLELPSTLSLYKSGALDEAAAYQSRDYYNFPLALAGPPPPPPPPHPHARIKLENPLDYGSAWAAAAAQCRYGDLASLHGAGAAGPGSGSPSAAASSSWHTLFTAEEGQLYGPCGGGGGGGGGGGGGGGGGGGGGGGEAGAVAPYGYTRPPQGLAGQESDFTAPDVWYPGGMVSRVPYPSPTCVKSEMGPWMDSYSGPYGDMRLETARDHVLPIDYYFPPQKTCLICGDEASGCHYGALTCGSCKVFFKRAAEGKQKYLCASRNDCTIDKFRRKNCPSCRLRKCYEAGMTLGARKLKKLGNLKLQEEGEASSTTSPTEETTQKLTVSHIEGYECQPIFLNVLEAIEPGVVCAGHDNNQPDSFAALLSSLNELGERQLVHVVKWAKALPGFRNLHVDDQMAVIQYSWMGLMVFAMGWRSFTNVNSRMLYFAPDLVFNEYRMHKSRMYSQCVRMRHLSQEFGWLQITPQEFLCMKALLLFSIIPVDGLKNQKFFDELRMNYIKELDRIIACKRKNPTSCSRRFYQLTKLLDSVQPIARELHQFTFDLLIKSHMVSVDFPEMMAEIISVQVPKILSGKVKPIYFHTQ", "assay": "Luciferase assay for AR transactivation, wild-type AR, PC-3 cells", "format": "cell-based", "parameters": "Antiandrogenic activity evaluated by luciferase assay in PC-3 cells WT: key to the marks not given beside the values", "settings": "test compound 1 μM, 0.1 nM DHT", "description": "(§1) PC-3 cells were transiently transfected with pCMV-MMTV-Luc, Renilla null luciferase and AR expressing plasmids. The cells were treated with 0.1 nM DHT with and without test compound for 24 hr. Relative luciferase activity was determined by dual luciferase assay kit (Promega), standardized to Renilla luciferase control and normalized to 0.1 nM DHT without test compound (100%).\n(§2) After 16 h, the cells were treated with 0.1 nM of DHT and test compounds at the designated concentration. After further 24 h, the cells were lysed in 100 μL/well passive lysis buffer, and 20 μL of the cell lysates was used for detection of the luciferase activity using Dual Luciferase Assay System (Promega). All experiments were run in triplicate. Relative luciferase activity is determined as the ratio of inducible firefly luciferase luminescence divided by the luminescence of the renilla luciferase control normalized to 0.1 nM DHT without test compounds.\n(§3) The potency of antagonistic activity: ++>+.\nPC-3 cells were transiently transfected with plasmid expressing wild type human AR and MMTV-Luc. […] RLU, relative luciferase units, were normalized to that of 0.1 nM DHT alone."}, "[2]": {"biological_target": "T2, T877A mutated AR (Homo sapiens, UniProt P10275, T878A)", "T2 sequence (P10275 1-920 T878A)": "T1 sequence (P10275 1-920) with T878A", "assay": "Luciferase assay for AR transactivation, T877A AR, PC-3 cells", "format": "cell-based", "description": "as §1, §2, §3"}, "[3]": {"biological_target": "T3, H874Y mutated AR (Homo sapiens, UniProt P10275, H875Y)", "T3 sequence (P10275 1-920 H875Y)": "T1 sequence (P10275 1-920) with H875Y", "assay": "Luciferase assay for AR transactivation, H874Y AR, PC-3 cells", "format": "cell-based", "settings": "test compound 1 μM, 0.1 nM DHT", "description": "as §1, §2, §3"}, "[4]": {"system": "PC-3 cells", "assay": "MTT cell growth inhibition, PC-3", "settings": "Part D table, 72 hours, I.A. = Inactive"}, "[5]": {"system": "LNCaP cells", "assay": "MTT cell growth inhibition, LNCaP", "settings": "Part D table, 72 hours, I.A. = Inactive"}, "[6]": {"system": "22Rv1 cells", "assay": "MTT cell growth inhibition, 22Rv1"}, "[7]": {"system": "C4-2B cells", "assay": "MTT cell growth inhibition, C4-2B", "settings": "Part D table, 72 hours, I.A. = Inactive"}, "[8]": {"system": "MDA PCa 2b cells", "assay": "MTT cell growth inhibition, MDA PCa 2b", "method": "MDA PCa 2b was seeded at the same density in medium BRFF-HPC1 (Athena Enzyme Systems, Baltimore, Md., USA) supplemented with 20% FBS. After overnight incubation, the medium was changed to a fresh medium containing different concentrations of test compounds diluted from stock DMSO solution. The final concentration of DMSO is 0.5%. After 72 h of incubation with test compounds, 20 μL of 3-(4,5-dimethyl thiazol-2-yl)-2,5-diphenyltetrazolium bromide (MTT) solution (5 mg/mL in PBS) were added to each well and incubated further for 2 h. Next, the supernatant was aspirated and the MTT formazan formed by metabolically viable cells was dissolved in 100 μL of isopropanol. The plates were mixed for 30 min, and the absorbance was measured at 600 nm on a plate reader (FLUOstar OPTIMA, BMG LabTech). All samples were in triplicate. The IC50 values were determined from dose-response curves by nonlinear regression using PRISM v5.00 (GraphPad Software Inc, La Jolla, Calif., USA).\nThe in vitro cytotoxicity of 1-20 were evaluated by MTT assays in a panel of prostate cancer cell lines, including LNCaP, MDA PCa 2b, 22Rv1, C4-2B and PC-3."}, "[9]": {"settings": "72 hrs, concentrations up to 50 μM, FIG. 2"}}, "note": "Where a chain is given by its changes, count along the chain named.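 For Cytotoxicity in prostate cancer cell lines IC50 (μM), C4-2B in this document: cells treated with a dilution series for 72 h, then MTT added and absorbance read at 600 nm, IC50 fitted from dose-response curves by nonlinear regression.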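 For Cytotoxicity in prostate cancer cell lines IC50 (μM), LNCaP in this document: MTT formazan absorbance at 600 nm read after 72 h of compound exposure, IC50 fitted by nonlinear regression of dose-response curves, samples run in triplicate.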"}
{"compound": "CC(C)(O)C(=O)Nc1ccc([N+](=O)[O-])c(C(F)(F)F)c1", "note": "[OHF, hydroxyflutamide, reference compound]", "values": [{"measurement": "Antiandrogenic activity evaluated by luciferase assay in PC-3 cells WT", "setting": "[1]", "result": "++"}, {"measurement": "agonist activity on T877A AR", "setting": "[2]; absence of DHT, PC-3 cells", "result": "activated"}, {"measurement": "Antiandrogenic activity evaluated by luciferase assay in PC-3 cells T877A", "setting": "[2]; test compound 1 μM, 0.1 nM DHT", "result": "Agonist"}, {"measurement": "Antiandrogenic activity evaluated by luciferase assay in PC-3 cells H874Y", "setting": "[3]", "result": "+"}, {"measurement": "Cytotoxicity in prostate cancer cell lines IC50 (μM), PC-3", "setting": "[4]", "result": "I.A."}, {"measurement": "Cytotoxicity in prostate cancer cell lines IC50 (μM), LNCaP", "setting": "[5]", "result": "I.A."}, {"measurement": "growth inhibitory effect on 22Rv1 cells", "setting": "[6]; [9]", "result": "resistant"}, {"measurement": "IC50", "setting": "[6]; read-out: Cytotoxicity in prostate cancer cell lines IC50 (μM), 22Rv1, Part D table, MTT, 72 hours", "result": "> 50", "unit": "µM"}, {"measurement": "Cytotoxicity in prostate cancer cell lines IC50 (μM), C4-2B", "setting": "[7]", "result": "I.A."}, {"measurement": "growth inhibitory effect on PCa 2b cells", "setting": "[8]; [9]", "result": "resistant"}, {"measurement": "IC50", "setting": "[8]; read-out: Cytotoxicity in prostate cancer cell lines IC50 (μM), PCa-2b, Part D table, MTT, 72 hours", "result": "> 50", "unit": "µM"}]}
